Measured values taken from US20230027026A1, “FUSED PYRIMIDINE COMPOUNDS, COMPOSITIONS AND MEDICINAL APPLICATIONS THEREOF” (JUBILANT BIOSYS LIMITED, priority 2019, published 2023).
Structures can show the parent of a compound that is named as a salt.

Tests used:
Type in all cases: cell-based
[1] = system: A431 cells; experiment: Cellular proliferation (Alamar Blue) assay, A431; settings: Homo sapiens, A-431; A431 cells, 72 hr, Alamar Blue; read-out: A431 IC50
Procedure: (§1) Example 3: Cellular Proliferation (Alamar Blue) Assays
(§2) • 1. EGFR(D770_N771insSVD) expressing Ba/F3 stable cell line • 2. EGFR (A767_dupASV) expressing Ba/F3 stable cell line • 3. A431 cells • 4. BTER2 (A775_G776insYVMA) expressing Ba/F3 stable cell line • 5. BTER2 (WT) expressing Ba/F3 stable cell line • 6. BT-474 cells
(§3) • 1. Seed cells at 5000 for A431 and 15,000 cells for Ba/F3 in 100 μL/well in complete media (for A431: DMEM with 10% FBS and for Ba/F3 cells: RPMI with 10% FBS) in 96-well tissue culture plate. Leave outer wells without cells for background measurements. Incubate at 37 degree Celsius in 5% CO2 humidified incubator for 16-18 hours. • 2. Add 0.025 ml of 5× concentration compound dilution or DMSO control. Final compound concentration range is 10-0.0005 μM prepared in 3-fold serial dilutions. Incubate for 72 hr at 37 degree Celsius in […] humidified incubator. • 3. Add 0.0125 mL Alamar Blue™ reagent to each well with multi-channel pipette and tap gently on each side of the plate to mix. Incubate for 3 hours at 37 degree Celsius in […] humidified incubator. • 4. Read plates on fluorescence reader (Tecan Spark Control, Device: Spark, Serial #: 1801006040) at 540 nm excitation, 590 nm emission wavelength. • 5. Data analysis was performed using XLfit 5.5.0.5.

[2] = target: EGFR (A767_dupASV) expressing Ba/F3 stable cell line (Homo sapiens, UniProt P00533, DUP767-769, cells depend on it); experiment: Cellular proliferation (Alamar Blue) assay, EGFR A767_dupASV Ba/F3; settings: EGFR A767_dupASV Ba/F3, 72 hr, read-out: A767 IC50
Procedure: as §1, §2, §3

[3] = target: EGFR(D770_N771insSVD) expressing Ba/F3 stable cell line (Homo sapiens, UniProt P00533, DUP768-770, cells depend on it); experiment: Cellular proliferation (Alamar Blue) assay, EGFR D770_N771insSVD Ba/F3; settings: EGFR D770_N771insSVD Ba/F3, 72 hr, read-out: D770 IC50
Procedure: as §1, §2, §3

EGFR(D770_N771insSVD) expressing Ba/F3 stable cell line, sequence (P00533 with tags, fused parts or gaps DUP768-770): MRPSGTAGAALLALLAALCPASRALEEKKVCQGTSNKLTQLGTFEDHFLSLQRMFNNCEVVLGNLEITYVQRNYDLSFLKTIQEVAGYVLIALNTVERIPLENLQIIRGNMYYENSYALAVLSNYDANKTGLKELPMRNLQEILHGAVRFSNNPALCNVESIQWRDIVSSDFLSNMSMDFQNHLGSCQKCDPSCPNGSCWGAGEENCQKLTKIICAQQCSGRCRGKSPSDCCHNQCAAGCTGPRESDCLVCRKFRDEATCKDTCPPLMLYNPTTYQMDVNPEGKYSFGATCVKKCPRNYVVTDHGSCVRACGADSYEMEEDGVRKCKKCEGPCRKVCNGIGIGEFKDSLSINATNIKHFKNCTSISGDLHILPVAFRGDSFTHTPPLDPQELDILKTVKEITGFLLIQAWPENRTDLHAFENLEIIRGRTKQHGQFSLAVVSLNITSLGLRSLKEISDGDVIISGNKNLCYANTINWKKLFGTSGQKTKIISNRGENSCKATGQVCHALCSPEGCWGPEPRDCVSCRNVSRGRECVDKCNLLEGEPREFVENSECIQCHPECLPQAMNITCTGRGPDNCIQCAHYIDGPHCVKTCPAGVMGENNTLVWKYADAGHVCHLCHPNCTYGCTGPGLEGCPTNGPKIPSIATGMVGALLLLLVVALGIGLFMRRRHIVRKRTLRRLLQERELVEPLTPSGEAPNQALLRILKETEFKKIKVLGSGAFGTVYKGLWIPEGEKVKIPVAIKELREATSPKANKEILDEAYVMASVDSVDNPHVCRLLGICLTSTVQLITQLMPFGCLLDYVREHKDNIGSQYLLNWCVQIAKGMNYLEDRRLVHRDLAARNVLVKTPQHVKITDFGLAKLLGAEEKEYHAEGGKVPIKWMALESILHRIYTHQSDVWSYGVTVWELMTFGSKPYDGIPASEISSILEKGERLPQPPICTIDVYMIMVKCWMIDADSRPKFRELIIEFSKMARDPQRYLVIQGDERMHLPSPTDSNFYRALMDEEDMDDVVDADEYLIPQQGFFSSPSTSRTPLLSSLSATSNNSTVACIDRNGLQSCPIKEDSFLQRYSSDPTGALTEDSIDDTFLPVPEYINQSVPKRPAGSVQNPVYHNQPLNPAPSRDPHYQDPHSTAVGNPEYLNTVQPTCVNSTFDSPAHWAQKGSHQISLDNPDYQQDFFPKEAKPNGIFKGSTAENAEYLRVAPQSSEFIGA
EGFR (A767_dupASV) expressing Ba/F3 stable cell line, sequence (P00533 with tags, fused parts or gaps DUP767-769): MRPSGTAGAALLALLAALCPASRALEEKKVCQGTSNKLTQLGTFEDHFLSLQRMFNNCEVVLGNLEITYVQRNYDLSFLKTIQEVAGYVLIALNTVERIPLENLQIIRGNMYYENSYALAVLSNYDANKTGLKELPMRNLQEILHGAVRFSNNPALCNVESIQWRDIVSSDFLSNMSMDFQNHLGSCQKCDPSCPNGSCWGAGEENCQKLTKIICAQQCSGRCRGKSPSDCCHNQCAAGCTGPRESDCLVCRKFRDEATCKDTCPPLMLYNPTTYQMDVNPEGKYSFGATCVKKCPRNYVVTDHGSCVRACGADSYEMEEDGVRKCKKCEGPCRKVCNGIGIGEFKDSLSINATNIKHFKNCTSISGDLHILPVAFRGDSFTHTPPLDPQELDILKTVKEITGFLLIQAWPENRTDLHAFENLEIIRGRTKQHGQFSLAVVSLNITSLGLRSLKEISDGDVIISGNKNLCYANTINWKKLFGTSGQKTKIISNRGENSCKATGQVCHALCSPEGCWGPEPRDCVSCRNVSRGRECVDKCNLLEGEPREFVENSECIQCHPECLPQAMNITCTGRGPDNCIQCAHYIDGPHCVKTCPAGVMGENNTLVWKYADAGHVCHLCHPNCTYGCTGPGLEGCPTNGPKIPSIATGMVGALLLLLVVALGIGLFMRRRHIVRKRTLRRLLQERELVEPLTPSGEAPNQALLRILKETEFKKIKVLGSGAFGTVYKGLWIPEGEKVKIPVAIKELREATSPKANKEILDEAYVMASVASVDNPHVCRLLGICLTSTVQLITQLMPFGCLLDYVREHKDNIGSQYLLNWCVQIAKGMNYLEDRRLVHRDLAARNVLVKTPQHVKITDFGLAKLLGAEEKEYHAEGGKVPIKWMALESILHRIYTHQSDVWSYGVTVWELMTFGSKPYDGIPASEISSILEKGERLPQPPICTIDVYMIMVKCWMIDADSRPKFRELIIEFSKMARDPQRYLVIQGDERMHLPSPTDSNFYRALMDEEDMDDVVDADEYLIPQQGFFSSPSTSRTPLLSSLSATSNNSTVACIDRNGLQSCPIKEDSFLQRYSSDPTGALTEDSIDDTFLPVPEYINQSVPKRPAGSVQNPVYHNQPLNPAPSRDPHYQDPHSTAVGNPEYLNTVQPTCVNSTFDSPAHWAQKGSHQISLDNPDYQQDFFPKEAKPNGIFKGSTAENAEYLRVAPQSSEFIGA

Compound	IC50 [1]	GI50 [2]	GI50 [3]
C=CC(=O)Nc1cc(N2C(=O)N(Cc3ccccc3)Cc3cnc(Nc4cn(C)nc4Cl)nc32)ccc1OC(F)(F)F [Compound 78, N-(5-(3-benzyl-7-((3-chloro-1-methyl-1H-pyrazol-4-yl)amino)-2-oxo-3,4-dihydropyrimido[4,5-d]pyrimidin-1(2H)-yl)-2-(trifluoromethoxy)phenyl)acrylamide]	4.18 µM	8370 nM	8780 nM
CN(C)C/C=C/C(=O)Nc1ccc(Cl)c(N2C(=O)N(Cc3ccccc3)Cc3cnc(Nc4cn(C)nc4Cl)nc32)c1 [Compound 86, (E)-N-(3-(3-benzyl-7-((3-chloro-1-methyl-1H-pyrazol-4-yl)amino)-2-oxo-3,4-dihydropyrimido[4,5-d]pyrimidin-1(2H)-yl)-4-chlorophenyl)-4-(dimethylamino)but-2-enamide]	5.44 µM	694 nM	900 nM
CN(C)C/C=C/C(=O)Nc1cccc(N2C(=O)N(Cc3ccccc3)Cc3cnc(Nc4cnn5cccnc45)nc32)c1 [Compound 90, (E)-N-(3-(3-benzyl-2-oxo-7-(pyrazolo[1,5-a]pyrimidin-3-ylamino)-3,4-dihydropyrimido[4,5-d]pyrimidin-1(2H)-yl)phenyl)-4-(dimethylamino)but-2-enamide]	≥ 10 µM	1150 nM	1850 nM
COCCn1cc(Nc2ncc3c(n2)N(c2cccc(NC(=O)/C=C/CN(C)C)c2)C(=O)N(Cc2ccccc2)C3)c(Cl)n1 [Compound 92, (E)-N-(3-(3-benzyl-7-((3-chloro-1-(2-methoxyethyl)-1H-pyrazol-4-yl)amino)-2-oxo-3,4-dihydropyrimido[4,5-d]pyrimidin-1(2H)-yl)phenyl)-4-(dimethylamino)but-2-enamide]	≥ 10 µM	385 nM	228 nM
CN(C)C/C=C/C(=O)Nc1cccc(N2C(=O)N(Cc3ccccc3)Cc3cnc(Nc4cn(C)nc4C(F)(F)F)nc32)c1 [Compound 95, (E)-N-(3-(3-benzyl-7-((1-methyl-3-(trifluoromethyl)-1H-pyrazol-4-yl)amino)-2-oxo-3,4-dihydropyrimido[4,5-d]pyrimidin-1(2H)-yl)phenyl)-4-(dimethylamino)but-2-enamide]	6.5 µM	106 nM	97 nM
CN(C)C/C=C/C(=O)Nc1cccc(N2C(=O)N(Cc3ccccc3)Cc3cnc(Nc4ccncc4)nc32)c1 [Compound 96, (E)-N-(3-(3-benzyl-2-oxo-7-(pyridin-4-ylamino)-3,4-dihydropyrimido[4,5-d]pyrimidin-1(2H)-yl)phenyl)-4-(dimethylamino)but-2-enamide]	≥ 10 µM	> 9350 nM	4070 nM
CN(C)C/C=C/C(=O)Nc1cccc(N2C(=O)N(Cc3ccccc3)Cc3cnc(Nc4ccc5c(ccn5C)c4)nc32)c1 [Compound 99, (E)-N-(3-(3-benzyl-7-((1-methyl-1H-indol-5-yl)amino)-2-oxo-3,4-dihydropyrimido[4,5-d]pyrimidin-1(2H)-yl)phenyl)-4-(dimethylamino)but-2-enamide]	≥ 10 µM	115 nM	145 nM
Cc1cn2cc(Nc3ncc4c(n3)N(c3cccc(NC(=O)/C=C/CN(C)C)c3)C(=O)N(Cc3ccccc3)C4)ccc2n1 [Compound 100, (E)-N-(3-(3-benzyl-7-((2-methylimidazo[1,2-a]pyridin-6-yl)amino)-2-oxo-3,4-dihydropyrimido[4,5-d]pyrimidin-1(2H)-yl)phenyl)-4-(dimethylamino)but-2-enamide]	≥ 10 µM	2970 nM	4810 nM
CN(C)C/C=C/C(=O)Nc1cccc(N2C(=O)N(Cc3ccccc3)Cc3cnc(Nc4cn(CC(F)F)nc4Cl)nc32)c1 [Compound 101, (E)-N-(3-(3-benzyl-7-((3-chloro-1-(2,2-difluoroethyl)-1H-pyrazol-4-yl)amino)-2-oxo-3,4-dihydropyrimido[4,5-d]pyrimidin-1(2H)-yl)phenyl)-4-(dimethylamino)but-2-enamide]	≥ 10 µM	100 nM	176 nM
CN(C)C/C=C/C(=O)N(C)c1cccc(N2C(=O)N(c3ccccc3)Cc3cnc(Nc4cn(C)nc4Cl)nc32)c1 [Compound 104, (E)-N-(3-(7-((3-chloro-1-methyl-1H-pyrazol-4-yl)amino)-2-oxo-3-phenyl-3,4-dihydropyrimido[4,5-d]pyrimidin-1(2H)-yl)phenyl)-4-(dimethylamino)-N-methylbut-2-enamide]	≥ 10 µM	255 nM	885 nM
C=CC(=O)Nc1cccc(N2C(=O)N(c3ccccc3)Cc3cnc(Nc4cn(C5CCN(C)CC5)nc4Cl)nc32)c1 [Compound 105, N-(3-(7-((3-chloro-1-(1-methylpiperidin-4-yl)-1H-pyrazol-4-yl)amino)-2-oxo-3-phenyl-3,4-dihydropyrimido[4,5-d]pyrimidin-1(2H)-yl)phenyl)acrylamide]	3.6 µM	12 nM	14 nM

The remaining lines, values ahead:

IC50 [1]	GI50 [2]	GI50 [3]	Compound
> 10 µM	2240 nM	1980 nM	C/C=C/C(=O)Nc1cccc(N2C(=O)N(Cc3ccccc3)Cc3cnc(Nc4cn(C)nc4F)nc32)c1 [Compound 87, (E)-N-(3-(3-benzyl-7-((3-fluoro-1-methyl-1H-pyrazol-4-yl)amino)-2-oxo-3,4-dihydropyrimido[4,5-d]pyrimidin-1(2H)-yl)phenyl)but-2-enamide]
≥ 10 µM	108 nM	91 nM	CN(C)C/C=C/C(=O)Nc1cccc(N2C(=O)N(Cc3ccccc3)Cc3cnc(Nc4cn(CCF)nc4Cl)nc32)c1 [Compound 93, (E)-N-(3-(3-benzyl-7-((3-chloro-1-(2-fluoroethyl)-1H-pyrazol-4-yl)amino)-2-oxo-3,4-dihydropyrimido[4,5-d]pyrimidin-1(2H)-yl)phenyl)-4-(dimethylamino)but-2-enamide]
≥ 10 µM	39 nM	43 nM	CN(C)C/C=C/C(=O)Nc1cccc(N2C(=O)N(Cc3ccccc3)Cc3cnc(Nc4cn(C)nc4C(F)F)nc32)c1 [Compound 94, (E)-N-(3-(3-benzyl-7-((3-(difluoromethyl)-1-methyl-1H-pyrazol-4-yl)amino)-2-oxo-3,4-dihydropyrimido[4,5-d]pyrimidin-1(2H)-yl)phenyl)-4-(dimethylamino)but-2-enamide]
≥ 10 µM	2630 nM	2540 nM	CN(C)C/C=C/C(=O)Nc1cccc(N2C(=O)N(Cc3ccccc3)Cc3cnc(Nc4cnn5c4OCCC5)nc32)c1 [Compound 97, (E)-N-(3-(3-benzyl-7-((6,7-dihydro-5H-pyrazolo[5,1-b][1,3]oxazin-3-yl)amino)-2-oxo-3,4-dihydropyrimido[4,5-d]pyrimidin-1(2H)-yl)phenyl)-4-(dimethylamino)but-2-enamide]
≥ 10 µM	322 nM	138 nM	CN(C)C/C=C/C(=O)Nc1cccc(N2C(=O)N(Cc3ccccc3)Cc3cnc(Nc4cccc5c4CCN5C4CCN(C)CC4)nc32)c1 [Compound 98, (E)-N-(3-(3-benzyl-7-((1-(1-methylpiperidin-4-yl)indolin-4-yl)amino)-2-oxo-3,4-dihydropyrimido[4,5-d]pyrimidin-1(2H)-yl)phenyl)-4-(dimethylamino)but-2-enamide]
≥ 10 µM	694 nM	929 nM	CN(C)C/C=C/C(=O)Nc1cccc(N2C(=O)N(Cc3ccccc3)Cc3cnc(Nc4ccc5c(c4)ncn5C)nc32)c1 [Compound 102, (E)-N-(3-(3-benzyl-7-((1-methyl-1H-benzo[d]imidazol-5-yl)amino)-2-oxo-3,4-dihydropyrimido[4,5-d]pyrimidin-1(2H)-yl)phenyl)-4-(dimethylamino)but-2-enamide]
≥ 10 µM	269 nM	224 nM	COc1ncccc1Nc1ncc2c(n1)N(c1cccc(NC(=O)/C=C/CN(C)C)c1)C(=O)N(Cc1ccccc1)C2 [Compound 103, (E)-N-(3-(3-benzyl-7-((2-methoxypyridin-3-yl)amino)-2-oxo-3,4-dihydropyrimido[4,5-d]pyrimidin-1(2H)-yl)phenyl)-4-(dimethylamino)but-2-enamide trifluoroacetate salt]
≥ 10 µM	1090 nM	2290 nM	CN1CCN(C/C=C/C(=O)Nc2cccc(N3C(=O)N(c4ccccc4)Cc4cnc(Nc5cn(C)nc5Cl)nc43)c2)CC1 [Compound 126, (E)-N-(3-(7-((3-chloro-1-methyl-1H-pyrazol-4-yl)amino)-2-oxo-3-phenyl-3,4-dihydropyrimido[4,5-d]pyrimidin-1(2H)-yl)phenyl)-4-(4-methylpiperazin-1-yl)but-2-enamide]
